Measured values as given in PubChem BioAssay AID1645866 (Buhrlage Lab, Dana-Farber Cancer Institute and Novartis …, 2021).
Activity calls are given as the source filed them.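 The calls were made as follows: active = in confirmatory dose-response testing, peak deubiquitinase inhibition of 30% or more; inactive = the rest.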

Target: Ubiquitin carboxyl-terminal hydrolase 28 (Homo sapiens) (UniProt Q96RU2)
Assay: Ubiquitin-specific peptidase 28 DUB inhibitors, biochemical concentration-dependence assay, validation of primary screening hits (AID 1645866)
Settings: purified USP28, ubiquitin-rhodamine fluorescence, 30 min

Ubiquitin carboxyl-terminal hydrolase 28 (Homo sapiens), sequence (Q96RU2 whole entry, looked up): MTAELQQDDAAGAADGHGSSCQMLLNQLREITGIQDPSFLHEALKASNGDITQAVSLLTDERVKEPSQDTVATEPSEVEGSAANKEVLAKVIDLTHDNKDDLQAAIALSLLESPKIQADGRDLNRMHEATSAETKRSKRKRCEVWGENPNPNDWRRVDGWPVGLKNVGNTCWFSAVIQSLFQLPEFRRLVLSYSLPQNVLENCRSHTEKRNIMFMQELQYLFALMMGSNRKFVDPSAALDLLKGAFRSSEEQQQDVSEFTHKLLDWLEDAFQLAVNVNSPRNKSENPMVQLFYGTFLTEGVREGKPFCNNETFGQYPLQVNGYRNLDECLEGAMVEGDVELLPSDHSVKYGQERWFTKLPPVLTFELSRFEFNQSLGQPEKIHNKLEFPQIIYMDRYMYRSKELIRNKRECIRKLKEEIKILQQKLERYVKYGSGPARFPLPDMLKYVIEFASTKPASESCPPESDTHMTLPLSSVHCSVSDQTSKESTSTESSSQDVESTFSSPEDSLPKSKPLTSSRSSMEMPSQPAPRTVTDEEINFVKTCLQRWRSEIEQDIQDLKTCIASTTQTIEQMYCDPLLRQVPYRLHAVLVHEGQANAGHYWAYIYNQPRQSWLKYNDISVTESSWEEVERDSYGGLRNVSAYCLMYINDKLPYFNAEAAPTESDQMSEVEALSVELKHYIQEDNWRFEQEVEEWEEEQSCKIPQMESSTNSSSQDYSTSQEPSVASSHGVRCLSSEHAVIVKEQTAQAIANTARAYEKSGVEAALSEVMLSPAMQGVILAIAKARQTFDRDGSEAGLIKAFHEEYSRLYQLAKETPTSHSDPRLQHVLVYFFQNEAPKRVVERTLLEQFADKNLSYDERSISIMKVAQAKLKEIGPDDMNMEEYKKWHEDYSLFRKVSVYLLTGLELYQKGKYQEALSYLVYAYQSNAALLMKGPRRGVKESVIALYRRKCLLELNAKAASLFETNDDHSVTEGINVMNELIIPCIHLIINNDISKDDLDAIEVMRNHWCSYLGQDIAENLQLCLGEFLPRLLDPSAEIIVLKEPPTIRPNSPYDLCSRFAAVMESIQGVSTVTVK

Structure (SMILES)	IC50
O=C(COC(=O)c1ccc2ncsc2c1)Nc1ccccc1F	> 50 µM (inactive)
Cc1ccc(Cn2nnc(C(=O)NCc3ccco3)c2-n2cccc2)cc1	6.49 µM
c1ccc2c(c1)CCc1c-2nc2ccccc2c1N1CCOCC1	> 50 µM (inactive)
Cc1ccc2cc(CCNC(=O)c3cccc(Br)c3)c(=O)[nH]c2c1	37.2 µM
COc1ccc(-c2cc(-c3ccc(F)cc3)[nH]c(=O)c2C#N)cc1	21.8 µM
O=C(/C=C/c1ccccc1)N1CCN(C2=NS(=O)(=O)c3ccccc32)CC1	> 50 µM (inactive)
CC(=O)c1ccc(NC(=O)c2nc3ccccc3nc2N2CCOCC2)cc1	> 50 µM (inactive)
COC(=O)c1ccc(Cn2cnc3ccc(F)cc3c2=O)o1	3.97 µM
COc1ccccc1C(=O)N1CCc2[nH]c3ccc(F)cc3c2C1	> 50 µM (inactive)
CCOc1ccc(CCNC(=O)c2cccc3c2C(=O)N(CCOC)C3)cc1OCC	16.1 µM
Cc1ccc(C)c(CSC2=NCCN2C(=O)c2ccco2)c1	4.07 µM
Cc1ccc(Cn2cc(-c3noc(-c4ccncc4)n3)nn2)cc1	36.9 µM
Cn1cc(CCNC(=O)c2cc3ccccc3[nH]2)c2cccnc21	8.29 µM
O=[N+]([O-])c1ccc2c(c1)nc1n2CCN(Cc2ccco2)C1	> 50 µM (inactive)
Cc1cc(N2CCC(NC(=O)NCc3ccc(F)cc3)C2=O)ccc1F (configuration not stated)	15 µM
CCCCc1nc2sc3c(SCC(=O)NCc4ccccc4)ncnc3c2c2c1CCC2	39 µM
COc1ccc(OC)c(NC(=O)CSc2nc(C)nc3c2oc2ccccc23)c1	8.65 µM
N#Cc1ccc(-c2ccc(OCC(=O)Nc3ccc4c(c3)OCO4)cc2)cc1	11.5 µM
O=C(COC(=O)c1ccc(Cl)cc1)Nc1ccc2[nH]c(=O)[nH]c2c1	9.08 µM
Cc1cc(O)c(=O)cc2c1C[C@H]1CC(C)(C)/C=C/C[C@@]3(C)Oc4cc(=O)c(O)cc(C)c4C[C@@H]3C[C@H](O)[C@]1(C)O2	> 50 µM (inactive)
O=S(=O)(c1cccc(F)c1)N1CCc2nc3ccccc3n2CC1	10.8 µM
O=S1(=O)CCN(Cc2ccccc2)c2c(F)nc(N3CCCCC3)c(F)c21	> 50 µM (inactive)
CCCN1CCN(C(=O)c2cc(NC(=O)C3CCC3)cc3nc(C)ccc23)CC1	> 50 µM (inactive)
CCn1c(SCC(=O)c2c(N)n(CC(C)C)c(=O)n(C)c2=O)nnc1-c1ccccc1	13.9 µM
O=C(NCc1ccccc1Cl)c1ccc2cn[nH]c2c1	10.1 µM
COc1cccc2c1OCC(NS(=O)(=O)c1cc(C)ccc1C)C2 (configuration not stated)	> 50 µM (inactive)

Structure (SMILES)	IC50
C/C=C(\Cl)C1=CC(=O)[C@]23C[C@H]2[C@@]2(C)CO[C@@]1(O)[C@@]3(O)O2	> 50 µM (inactive)
O=C(Nc1ccccc1)c1nc2c(s1)CCN(C(=O)c1ccccc1)CC2	> 50 µM (inactive)
CCN(CC(=O)Nc1cc(C)on1)c1cccc2ccccc12	> 50 µM (inactive)
Cc1cc(C)n(-c2ccc(C(=O)NCc3ccc(F)cc3)cn2)n1	19.7 µM
COc1ccccc1-c1nc(-c2nnn(Cc3cccc(F)c3)c2C)no1	10.4 µM
O=C(NCc1cccnc1)c1cnn2c(C(F)(F)F)cc(-c3ccc(F)cc3)nc12	47.4 µM
CCc1nnc(NC(=O)c2nnn(-c3ccccc3Cl)c2C)s1	28.5 µM
COc1cc(Cn2cnc3c([nH]c4ccc(Br)cc43)c2=O)cc(OC)c1	2.76 µM
COc1ccccc1NC(=O)c1cc2c(C)nn(Cc3ccccc3)c2s1	38.1 µM
N#Cc1cc2c(nc1SCC(=O)NCc1ccccc1)CCCC2	> 50 µM (inactive)
CN(C(=O)CSc1nnc(-c2cc3ccccc3n2C)o1)c1ccccc1	> 50 µM (inactive)
O=C(COC(=O)c1cc(Cl)ccc1O)Nc1ccc2c(c1)OCCO2	24.3 µM
Cc1ccc(C(=O)Nc2cc3c4c(c2)CC(=O)N4CCC3)cc1C	6.26 µM
Cc1ccc(C2c3cccn3CCN2C(=O)Nc2ccccc2)cc1 (configuration not stated)	> 50 µM (inactive)
O=C(O)c1ccc(C2Cc3c([nH]c(=O)[nH]c3=O)O2)cc1 (configuration not stated)	6.53 µM
COc1ccc(S(=O)(=O)Nc2ccc(Nc3ccc(-n4cccn4)nn3)cc2)cc1	41 µM
COc1ccc(-c2cc3nc([C@@H](C)NC(=O)c4ccc5c(c4)OCO5)nn3cn2)cc1	35.1 µM
CC1(C)Cc2c(sc3nc(Cc4ccccc4)nc(SCC(=O)Nc4ccccc4)c23)CO1	2.4 µM
O=C(CSc1ncnc2c1oc1ccccc12)Nc1ccc2c(c1)OCCO2	17.1 µM
O=C1Nc2ccccc2C(=O)C1C(c1ccc(Cl)cc1)C1C(=O)Nc2ccccc2C1=O (configuration not stated)	28.6 µM
Cc1ccc([N+](=O)[O-])cc1S(=O)(=O)Nc1cc2sc(=O)oc2c2ccccc12	13.6 µM
COc1ccc(C)cc1NC(=O)COc1ccc2c(c1)OCO2	49.6 µM
CCOc1ccccc1C(=O)Oc1ccc2c(C)cc(=O)oc2c1	23.2 µM
COc1ccc(NC(=O)C2CC(=O)Nc3c(-c4ccc(Cl)cc4)cnn32)c(OC)c1 (configuration not stated)	14.5 µM
Cn1c(SCc2ccccc2)nnc1-c1csc(-c2ccccc2)n1	31.3 µM
COc1cc(Cl)ccc1Nc1ncc(C(=O)Nc2cc(OC)c(OC)c(OC)c2)c2ccccc12	< 0.05 µM

Structure (SMILES)	IC50
Nc1c(C(=O)Nc2ccc3c(c2)OCO3)sc2nc(-c3cccnc3)ccc12	1.98 µM
COc1cc(/C=C/C(=O)OCC(=O)Nc2ccc([N+](=O)[O-])cc2OC)ccc1O	18.8 µM
COc1cc(N)c(Cl)cc1C(=O)OCC(=O)c1ccc2c(c1)OCCO2	6.12 µM
COc1cccc(NC(=O)c2cnc3c(c2)c(=O)n(C)c(=O)n3C)c1	2.43 µM
COc1ccc(CC(NC(C)=O)C(=O)NC2CCN(c3c(Cc4ccccc4)c(C)nc4ncnn34)CC2)cc1OC (configuration not stated)	> 50 µM (inactive)
COc1cc(-c2nc(C(N)=O)c3[nH]c(=O)n(-c4ccc(C)cc4)c3n2)cc(OC)c1OC	1.72 µM
O=C(CN1CCCCC1)Nc1nnc(-c2ccc([N+](=O)[O-])cc2)s1	14 µM
Cc1ccc(-n2nnc(C(=O)NC3CCCCC3)c2N)cc1	27.2 µM
CSc1nc(SCC(N)=O)c2c3c(sc2n1)COC(C)(C)C3	27.3 µM
CCn1c(=N)n(CCOc2ccc(F)cc2)c2ccccc21	0.588 µM
COc1ccc(-c2cc(C(F)F)n3ncc(C(=O)Nc4ccc5c(c4)OCCO5)c3n2)cc1	> 50 µM (inactive)
COc1ccc2c(c1)CCc1c(C(=O)NCc3cccnc3)noc1-2	20.3 µM
COCCCNC(=O)Cn1c(=O)n(Cc2ccc(C(=O)NCc3ccccc3OC)cc2)c(=O)c2ccccc21	> 50 µM (inactive)
O=C(NCc1ccccc1)Nc1cccc2ccccc12	29.3 µM
Cc1ccc(S(=O)(=O)c2cnc(SCC(=O)Nc3ccc(Cl)cc3)nc2N)cc1C	39.5 µM
O=C(Cc1cc(-c2ccc(F)cc2)on1)NCc1ccccc1	22.1 µM
COc1ccc(OC)c(-n2c(SCC(=O)N3CCc4ccccc43)nnc2-c2cccc(S(=O)(=O)N(C)C)c2)c1	8.44 µM
COC1=CC(=O)c2c(O)c3c(c(C)c2C1=O)C[C@@]1(O)[C@H](O[C@H]2CC[C@H](O[C@H]4C[C@@](C)(O)[C@H](OC(=O)c5c(C)ccc(C)c5O)[C@H](C)O4)[C@@H](C)O2)C(=O)C(C(C)=O)=C(O)[C@@]1(O)C3=O	2.27 µM
Cc1cc(=O)n(CC(=O)Nc2ccccc2C)c(Nc2ccc(F)cc2)n1	19.5 µM
COc1ncccc1CN1CCn2c(Cn3cccn3)cnc2C1C (configuration not stated)	> 50 µM (inactive)
Cc1ccc(NC(=O)c2nnn(-c3ccccc3Br)c2C)cc1C	1.53 µM
O=C(CCCCn1c(=O)c2ccccc2n(CC(=O)Nc2ccc(F)c(Cl)c2)c1=O)NCc1ccco1	> 50 µM (inactive)
COc1ccc(C2C(C(=O)Nc3ccccc3OC)=C(C)Nc3nnnn32)cc1Br (configuration not stated)	23.2 µM
COc1ccccc1NC(=O)c1cc(-c2ccccn2)nc2ccccc12	27.4 µM
CCc1ccc(NC(=O)Cc2nnc(-c3ccc4ncccc4c3)o2)cc1	25.9 µM
CC1CCc2c(sc3nc(CC#N)[nH]c(=O)c23)C1 (configuration not stated)	> 50 µM (inactive)

Structure (SMILES)	IC50
Cc1cc(=O)n(CC(=O)NCc2ccccc2F)c2c1c(C)nn2-c1ccccc1	18.5 µM
Cc1nn(C)c2c1[C@@H](c1ccc(F)cc1)[C@H](NC(=O)c1ccccc1)C(=O)N2	16 µM
COc1cccc2cc(C(=O)Nc3nc(-c4ccncc4)cs3)oc12	0.647 µM
CCN(CCCNC(=O)c1ccc(Cn2c(=O)[nH]c3ccccc3c2=O)cc1)c1ccccc1	13.6 µM
O=C(NCc1ccc2c(c1)OCO2)c1nc(-c2ccccc2)n(-c2ccccc2)n1	> 50 µM (inactive)
Cc1ccccc1C(=O)OCCN1C(=O)c2cccc3c(N4CCOCC4)ccc(c23)C1=O	> 50 µM (inactive)
COc1cc(-c2ccno2)ccc1S(=O)(=O)Nc1ccccc1Cl	4.26 µM
O=C(OCc1cccc(Cl)c1)c1ccc2ccccc2n1	0.36 µM
Cc1nc(C(=O)Nc2cccc(Cl)c2Cl)nn1-c1cc(Cl)cc(Cl)c1	0.163 µM
COc1ccc(NC(=O)c2ccc(-n3nnnc3SC)cc2)cc1Cl	31.1 µM
Cc1nn(-c2ccc(Cl)cc2)c2[nH]c(=O)c(CNCC3CCCO3)cc12 (configuration not stated)	> 50 µM (inactive)
O=C(CC1C(=O)N(Cc2cccnc2)c2nc3ccccc3n21)Nc1cccc2ccccc12 (configuration not stated)	> 50 µM (inactive)
CC1CCN(c2cc(-n3cnc(C(=O)N4CCCC(C)C4)c3)ncn2)CC1 (configuration not stated)	10.1 µM
O=C(Nc1ccc2c(c1)OCCO2)C1CCN(C(=O)c2cc(-c3cccnc3)n[nH]2)CC1	16.2 µM
COc1cc(OC)c2c(c1)C(=O)C1=C(COC(C)(O)C1)C2=O (configuration not stated)	> 50 µM (inactive)
Cc1ccc(Cn2nnc(-c3noc(-c4ccc[nH]4)n3)c2C)cc1	11.6 µM
O=C(Cc1cc(-c2ccccc2)on1)NCc1c(F)cccc1F	29.1 µM
CCN(CC)c1nc(F)c2c(c1F)S(=O)(=O)CCN2Cc1ccccc1	> 50 µM (inactive)
O=C(CNC(=O)c1cc2ccccc2o1)Nc1ccc2c(c1)OCCO2	18.3 µM
COc1ccc(OC)c(-c2cc(C(=O)Nc3c(C)nn(Cc4ccccc4)c3C)no2)c1	1.83 µM
COc1cccc(/C=C/C(=O)Nc2ccc(N3CCOCC3)cc2)c1OC	2.32 µM
COc1ccc(Nc2nc(C(=O)NCc3ccc4c(c3)OCO4)cc3occc23)cc1	4.91 µM
CC1CCCCN1CCCNC(=O)c1ccc(N2CCc3ccccc32)s1 (configuration not stated)	10.6 µM
CC(C)OC(=O)c1cc2c(ccn2C)n1CC(=O)N1CCN(C(=O)c2ccco2)CC1	> 50 µM (inactive)
